The text below walks through data of patent US9475815B2, “Substituted benzothienyl-pyrrolotriazines and uses thereof” (Bayer Intellectual Property GmbH, priority 2012, dated 2016).

Counter-ions that a name gives are not always drawn.

Test [1] addresses human mTOR (Homo sapiens (Human), UniProt P42345). As to the kind of experiment: mTOR kinase assay (TR-FRET, for comparative purposes). The note with it: for inhibition at 1 µM: read-out: mTOR % inhibition @ 1 μM, 1 μM test compound, 40 μM ATP, mean values. The test is classed as biochemical. As to the method:
mTOR inhibitory activity of the compounds of the present invention was quantified employing the TR-FRET based mTOR assay as described in the following paragraphs:
Test compounds were dissolved in DMSO to generate 10 mM stock solutions. These solutions were first 10-fold diluted by 100% DMSO to get 1 mM solutions in 100% DMSO, then 100-fold diluted by 50% DMSO to get 10 μM solutions in 50% DMSO.
(final concentration in the 10 μl assay volume=1 nM) in FRET buffer.
For this, the fluorescence emissions at 495 nm and 520 nm after excitation at 340 nm was measured in an Envision 2104 multilabel reader (Perkin-Elmer).

Test [2] deals with human FGFR-1 (Homo sapiens, UniProt P11362). In words: FGFR-1 high ATP kinase assay (TR-FRET). Background: In TR-FRET formats the signal depends on donor and acceptor labels being close together.
The target of test [3] is human FGFR-3 (Homo sapiens (Human), UniProt P22607). In words: FGFR-3 kinase assay (TR-FRET). The test is classed as biochemical. The note with it: 10 μM ATP, 15 min pre-incubation with enzyme.
Sequence of human FGFR-3 (P22607 397-806): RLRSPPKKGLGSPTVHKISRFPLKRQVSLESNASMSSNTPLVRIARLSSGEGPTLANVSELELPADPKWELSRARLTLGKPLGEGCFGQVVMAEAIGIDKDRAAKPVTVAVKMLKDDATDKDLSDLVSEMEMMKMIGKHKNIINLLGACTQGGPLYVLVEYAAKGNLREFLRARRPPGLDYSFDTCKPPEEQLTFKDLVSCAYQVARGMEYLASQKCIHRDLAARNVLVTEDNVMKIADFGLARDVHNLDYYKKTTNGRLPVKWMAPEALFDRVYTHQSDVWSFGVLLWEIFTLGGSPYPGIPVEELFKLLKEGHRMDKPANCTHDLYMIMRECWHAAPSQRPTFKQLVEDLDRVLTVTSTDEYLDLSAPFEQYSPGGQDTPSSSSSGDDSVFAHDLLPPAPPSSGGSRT

Sequence of human mTOR (P42345 1360-2549): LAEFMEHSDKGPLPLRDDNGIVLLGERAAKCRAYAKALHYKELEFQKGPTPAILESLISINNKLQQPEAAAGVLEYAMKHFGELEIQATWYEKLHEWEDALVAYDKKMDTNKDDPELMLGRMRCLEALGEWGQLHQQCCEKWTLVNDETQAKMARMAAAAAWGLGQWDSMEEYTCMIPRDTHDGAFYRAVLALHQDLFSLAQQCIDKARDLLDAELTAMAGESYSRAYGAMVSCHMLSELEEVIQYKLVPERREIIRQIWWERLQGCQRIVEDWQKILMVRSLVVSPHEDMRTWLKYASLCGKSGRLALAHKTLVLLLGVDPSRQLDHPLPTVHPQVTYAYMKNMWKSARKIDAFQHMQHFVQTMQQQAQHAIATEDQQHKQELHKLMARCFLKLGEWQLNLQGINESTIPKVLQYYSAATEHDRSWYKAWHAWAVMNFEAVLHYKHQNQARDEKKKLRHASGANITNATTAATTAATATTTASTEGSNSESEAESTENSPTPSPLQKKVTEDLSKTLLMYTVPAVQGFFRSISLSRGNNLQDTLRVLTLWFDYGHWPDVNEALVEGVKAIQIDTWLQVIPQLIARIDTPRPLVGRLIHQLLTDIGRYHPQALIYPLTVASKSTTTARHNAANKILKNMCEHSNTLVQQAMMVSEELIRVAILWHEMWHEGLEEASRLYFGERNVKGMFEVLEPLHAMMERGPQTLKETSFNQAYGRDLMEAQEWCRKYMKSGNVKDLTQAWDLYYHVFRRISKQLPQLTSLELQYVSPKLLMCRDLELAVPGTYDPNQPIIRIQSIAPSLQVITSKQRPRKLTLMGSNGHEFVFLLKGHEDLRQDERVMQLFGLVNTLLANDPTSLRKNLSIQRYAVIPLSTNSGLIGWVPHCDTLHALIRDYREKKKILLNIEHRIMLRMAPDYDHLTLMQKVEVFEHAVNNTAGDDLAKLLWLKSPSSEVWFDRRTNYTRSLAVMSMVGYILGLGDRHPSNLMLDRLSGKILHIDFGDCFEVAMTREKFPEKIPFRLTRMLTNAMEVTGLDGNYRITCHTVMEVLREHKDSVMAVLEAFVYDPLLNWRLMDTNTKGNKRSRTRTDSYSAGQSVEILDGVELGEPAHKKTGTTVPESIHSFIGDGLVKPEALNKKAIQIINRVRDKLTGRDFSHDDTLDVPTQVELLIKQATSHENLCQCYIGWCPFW
Sequence of human FGFR-1 (P11362 22-822 limits assumed): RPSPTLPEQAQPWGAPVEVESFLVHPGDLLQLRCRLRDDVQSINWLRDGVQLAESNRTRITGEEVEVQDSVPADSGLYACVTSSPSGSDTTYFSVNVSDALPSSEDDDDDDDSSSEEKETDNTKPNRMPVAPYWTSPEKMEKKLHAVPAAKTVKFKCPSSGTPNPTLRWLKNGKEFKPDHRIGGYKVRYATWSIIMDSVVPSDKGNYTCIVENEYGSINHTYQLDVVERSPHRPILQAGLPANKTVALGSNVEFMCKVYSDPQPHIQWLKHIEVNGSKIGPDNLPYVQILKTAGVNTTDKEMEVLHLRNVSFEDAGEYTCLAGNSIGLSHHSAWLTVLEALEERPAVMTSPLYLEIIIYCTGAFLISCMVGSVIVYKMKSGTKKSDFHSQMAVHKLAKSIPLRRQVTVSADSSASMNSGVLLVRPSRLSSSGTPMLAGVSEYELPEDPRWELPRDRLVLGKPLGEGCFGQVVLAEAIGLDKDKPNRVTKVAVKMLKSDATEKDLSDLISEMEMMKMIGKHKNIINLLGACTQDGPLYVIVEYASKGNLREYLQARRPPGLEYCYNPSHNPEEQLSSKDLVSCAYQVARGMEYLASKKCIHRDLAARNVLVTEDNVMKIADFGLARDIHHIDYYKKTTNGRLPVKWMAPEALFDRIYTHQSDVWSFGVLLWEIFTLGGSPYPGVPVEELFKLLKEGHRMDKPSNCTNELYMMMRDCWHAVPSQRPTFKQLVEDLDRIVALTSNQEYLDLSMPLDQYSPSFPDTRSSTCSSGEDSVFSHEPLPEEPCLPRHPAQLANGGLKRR

`COc1cccc2cc(-c3cc(CN4CCNCC4)n4ncnc(N)c34)sc12` [Example 3, 5-(7-Methoxy-1-benzothiophen-2-yl)-7-(piperazin-1-ylmethyl)pyrrolo[2,1-f][1,2,4]triazin-4-amine]: the inhibition at 1 µM in test [1] was determined as 12.2%. Moreover, 92.8 nM corresponded to half-maximal inhibition in test [2] (IC50).

Consider `COc1cc(Cl)cc2cc(-c3cc(CN4CCNCC4)n4ncnc(N)c34)sc12` [Example 4, 5-(5-Chloro-7-methoxy-1-benzothiophen-2-yl)-7-(piperazin-1-ylmethyl)pyrrolo[2,1-f][1,2,4]-triazin-4-amine trihydrochloride], for which the figures for the IC50 in test [3] and in test [2] were 79 nM and 34.7 nM, respectively. In addition, the inhibition at 1 µM in test [1] amounted to 26.2%.

On to `COc1cc(C)cc2cc(-c3cc(CN4CCNC(=O)C4(C)C)n4ncnc(N)c34)sc12` [Example 11, 4-{[4-Amino-5-(7-methoxy-5-methyl-1-benzothiophen-2-yl)pyrrolo[2,1-f][1,2,4]triazin-7-yl]-methyl}-3,3-dimethylpiperazin-2-one], for which the IC50 in test [3] came to 146 nM; in test [2], 95 nM. Besides, in test [1], the inhibition at 1 µM was found to be 27.8%.

For the molecule `COc1cc(C)cc2cc(-c3cc(CN4CCN(C)CC4)n4ncnc(N)c34)sc12` [Example 12, 5-(7-Methoxy-5-methyl-1-benzothiophen-2-yl)-7-[(4-methylpiperazin-1-yl)methyl]pyrrole[2,1-f]-[1,2,4]triazin-4-amine bis(formiate)], the inhibition at 1 µM in test [1] was 11.4%. In test [2], it took 39.1 nM to reach half-maximal inhibition (IC50).

With `CCN1CCN(Cc2cc(-c3cc4cc(C)cc(OC)c4s3)c3c(N)ncnn23)CC1` [Example 13, 7-[(4-Ethylpiperazin-1-yl)methyl]-5-(7-methoxy-5-methyl-1-benzothiophen-2-yl)pyrrole[2,1-f]-[1,2,4]triazin-4-amine formiate], in test [1], the inhibition at 1 µM was determined as 25.2%. In test [2], this molecule displayed an IC50 of 93.6 nM.

For the molecule `COc1cc(C)cc2cc(-c3cc(CN4CC(O)C(NCCO)C4)n4ncnc(N)c34)sc12` (stereo not shown) [Example 21], the IC50 in test [3] came to 8 nM; in test [2], 13.2 nM. Also, the inhibition at 1 µM in test [1] came to 37.6%.

For the molecule `COc1cc(C)cc2cc(-c3cc(CN4CC5CNCC5C4)n4ncnc(N)c34)sc12` (stereo not shown) [Example 23], the results for the IC50 in test [3] and in test [2] were 69.4 nM and 19.3 nM, respectively. Moreover, the inhibition at 1 µM in test [1] turned out to be 28.1%.

For the molecule `COc1cc(C)cc2cc(-c3cc(CN4CCC5CN(C)CC54)n4ncnc(N)c34)sc12` (stereo not shown) [Example 24], the IC50 was 119 nM in test [3] and 34.1 nM in test [2]. Moreover, the inhibition at 1 µM in test [1] was determined as 17.3%.

With `COc1cc(C)cc2cc(-c3cc(CN4CCN(CCO)CC4)n4ncnc(N)c34)sc12` [Example 25], in test [1], the inhibition at 1 µM worked out at 10.2%. The molecule also returned an IC50 in test [2] of 73.3 nM.

Consider `COc1cc(C)cc2cc(-c3cc(CN4CCC(N)CC4)n4ncnc(N)c34)sc12` [Example 26], for which the IC50 in test [3] was 130 nM; in test [2] it was 82.6 nM. Moreover, the “mTOR % inhibition @ 1 μM” value in test [1] (1 μM test compound, 40 μM ATP, mean values) is “no inhib. effect detect”.

As for `COc1cc(C)cc2cc(-c3cc(CN4CC5CC5(N)C4)n4ncnc(N)c34)sc12` (stereo not shown) [Example 27], the results for the half-maximal inhibitory concentration (IC50) in test [3] and in test [2] were 60.8 nM and 42.2 nM, respectively. Besides, the inhibition at 1 µM in test [1] came out at 2.4%.

Consider `CNCCNCc1cc(-c2cc3cc(C)cc(OC)c3s2)c2c(N)ncnn12` [Example 29], for which the inhibition at 1 µM in test [1] came out at 2.4%. This molecule also displayed an IC50 in test [2] of 50.4 nM.

Consider `COc1cc(C)cc2cc(-c3cc(CNCCNC(N)=O)n4ncnc(N)c34)sc12` [Example 30], for which the inhibition at 1 µM in test [1] was 16.2%. The same molecule returned an IC50 in test [2] of 54.2 nM.

With `COc1cc(C)cc2cc(-c3cc(CNCCN)n4ncnc(N)c34)sc12` [Example 32], the inhibition at 1 µM in test [1] is 41.3%. For the same molecule, the IC50 in test [2] came to 23.3 nM.

`COc1cc(C)cc2cc(-c3cc(CNCCNC(C)(C)C)n4ncnc(N)c34)sc12` [Example 34]: the inhibition at 1 µM in test [1] came out at 4.9%. This molecule had a concentration for half-maximal inhibition (IC50) in test [2] of 99.3 nM.

Turning to `COc1cc(C)cc2cc(-c3cc(CN4CCNC(c5cccs5)C4)n4ncnc(N)c34)sc12` (stereo not shown) [Example 35], in test [1], the inhibition at 1 µM amounted to 34%. This molecule also registered an IC50 in test [2] of 16.4 nM.

Regarding `CCC1CN(Cc2cc(-c3cc4cc(C)cc(OC)c4s3)c3c(N)ncnn23)CCN1` (stereo not shown) [Example 36], the inhibition at 1 µM in test [1] was 18.3%. This molecule also came in with a 50% inhibitory concentration (IC50) in test [2] of 17 nM.

`COc1cc(C)cc2cc(-c3cc(CNC4CCCNC4=O)n4ncnc(N)c34)sc12` (stereo not shown) [Example 37]: the inhibition at 1 µM in test [1] worked out at 13.4%. In test [2], this molecule displayed an IC50 of 44.9 nM.

In the case of `COc1cc(C)cc2cc(-c3cc(CN4CCNC(C(=O)O)C4)n4ncnc(N)c34)sc12` (stereo not shown) [Example 38], the inhibition at 1 µM in test [1] amounted to 11.2%. In addition, the IC50 in test [2] worked out at 45.7 nM.

As to `COc1cc(C)cc2cc(-c3cc(CN4CCNC(=O)C4C)n4ncnc(N)c34)sc12` (stereo not shown) [Example 39], in test [1], the inhibition at 1 µM worked out at 21.4%. Also, the IC50 in test [2] came to 57.1 nM.

With `COc1cc(C)cc2cc(-c3cc(CNC4CCC(N)C4)n4ncnc(N)c34)sc12` (stereo not shown) [Example 40], the inhibition at 1 µM in test [1] is 15%. The molecule further displayed a concentration for half-maximal inhibition (IC50) in test [2] of 63.8 nM.

With `COc1cc(C)cc2cc(-c3cc(CNC4CCCN(C)C4)n4ncnc(N)c34)sc12` (stereo not shown) [Example 43], the inhibition at 1 µM in test [1] is 13.8%. 50.6 nM corresponded to half-maximal inhibition in test [2] (IC50).

Consider `COc1cc(C)cc2cc(-c3cc(CN4CC(C)NCC4C)n4ncnc(N)c34)sc12` (stereo not shown) [Example 44], for which the inhibition at 1 µM in test [1] was 10.8%. Also, 38.8 nM corresponded to half-maximal inhibition in test [2] (IC50).

For the molecule `COc1cc(C)cc2cc(-c3cc(CN(C)C4CCN(C)C4)n4ncnc(N)c34)sc12` (stereo not shown) [Example 46], the inhibition at 1 µM in test [1] was determined as 26.3%. The molecule further gave an IC50 in test [2] of 20.8 nM.

As for `COc1cc(C)cc2cc(-c3cc(CN4C[C@@H]5CCCN[C@@H]5C4)n4ncnc(N)c34)sc12` [Example 47], the inhibition at 1 µM in test [1] was 29%. 25.2 nM corresponded to half-maximal inhibition in test [2] (IC50).

As to `COc1cc(C)cc2cc(-c3cc(CN4CCCNCC4)n4ncnc(N)c34)sc12` [Example 48], in test [1], the inhibition at 1 µM is 16.9%. Moreover, in test [2], 28.9 nM corresponded to half-maximal inhibition (IC50).

In the case of `COc1cc(C)cc2cc(-c3cc(CN4CCNC(C(C)(C)C)C4)n4ncnc(N)c34)sc12` (stereo not shown) [Example 49], the inhibition at 1 µM in test [1] stood at 1.3%. The same molecule had an IC50 in test [2] of 58.9 nM.

In the case of `COc1cc(C)cc2cc(-c3cc(CN4CCN5CCCC5C4)n4ncnc(N)c34)sc12` (stereo not shown) [Example 50], in test [1], the inhibition at 1 µM stood at 3.4%. This molecule returned an IC50 in test [2] of 59.3 nM.

For the molecule `COc1cc(C)cc2cc(-c3cc(CN4CCNC(C)C4)n4ncnc(N)c34)sc12` (stereo not shown) [Example 51], the inhibition at 1 µM in test [1] was determined as 0.9%. In test [2], this molecule had an IC50 of 41.3 nM.

Regarding `COc1cc(C)cc2cc(-c3cc(CN(C)CCCN(C)C)n4ncnc(N)c34)sc12` [Example 52], the inhibition at 1 µM in test [1] came to 7.3%. The IC50 in test [2] is 87.8 nM.

With `COc1cc(C)cc2cc(-c3cc(CN4CNC(=O)C4)n4ncnc(N)c34)sc12` [Example 63], the IC50 in test [3] came to 34.5 nM. Moreover, the inhibition at 1 µM in test [1] is 26%.

Turning to `COc1cc(C)cc2cc(-c3cc(CN4CCN(C(=O)C5CC5)CC4)n4ncnc(N)c34)sc12` [Example 93, (4-{[4-Amino-5-(7-methoxy-5-methyl-1-benzothiophen-2-yl)pyrrolo[2,1-f][1,2,4]triazin-7-yl]-methyl}piperazin-1-yl)(cyclopropyl)methanone], the inhibition at 1 µM in test [1] turned out to be 47.2%. In test [2], this molecule gave an IC50 of 67 nM.

As to `COc1cc(C)cc2cc(-c3cc(CN4CCN(C(=O)C5CCC5)CC4)n4ncnc(N)c34)sc12` [Example 94, (4-{[4-Amino-5-(7-methoxy-5-methyl-1-benzothiophen-2-yl)pyrrolo[2,1-f][1,2,4]triazin-7-yl]-methyl}piperazin-1-yl)(cyclobutyl)methanone], the inhibition at 1 µM in test [1] was 44.7%. Besides, the IC50 in test [2] is 68.1 nM.

As to `COc1cc(C)cc2cc(-c3cc(CN4CCN(C(=O)CCC(N)=O)CC4)n4ncnc(N)c34)sc12` [Example 95, 4-(4-{[4-Amino-5-(7-methoxy-5-methyl-1-benzothiophen-2-yl)pyrrolo[2,1-f][1,2,4]triazin-7-yl]-methyl}piperazin-1-yl)-4-oxobutanamide dihydrochloride], the inhibition at 1 µM in test [1] was determined as 40.3%. In test [2], this molecule had an IC50 of 95.7 nM.

As to `COc1cc(C)cc2cc(-c3cc(COCCN(C)C)n4ncnc(N)c34)sc12` [Example 108, 7-{[2-(Dimethylamino)ethoxy]methyl}-5-(7-methoxy-5-methyl-1-benzothiophen-2-yl)pyrrolo-[2,1-f][1,2,4]triazin-4-amine dihydrochloride], the inhibition at 1 µM in test [1] was found to be 7.1%. In test [2], the IC50 came out at 97.6 nM.

In test [3], `Nc1nccn2c(C3CCC3)nc(-c3ccc4sccc4c3)c12` [WO 2007/061737 Example 4, reference compound] had an IC50 of 2400 nM.

As for `Nc1nccn2c(C3CCNCC3)nc(-c3cc4ccccc4[nH]3)c12` [WO 2007/061737 Example 25, reference compound], the half-maximal inhibitory concentration (IC50) is 1200 nM in test [3] and 880 nM in test [2].

Turning to `Nc1nccn2c(C3CCC3)nc(-c3cc4ccccc4s3)c12` [WO 2007/061737 Example 120, reference compound], the IC50 in test [3] was 506 nM.

As to `Nc1nccn2c(C3CCN(C(=O)c4ccsc4)CC3)nc(-c3cc4ccccc4s3)c12` [WO 2007/061737 Example 157, reference compound], the IC50 in test [3] came to 2300 nM; in test [2], 3000 nM.

In the case of `Cc1c(-c2nc(C3CCN(C(=O)c4ccsc4)CC3)n3ccnc(N)c23)sc2ccccc12` [WO 2007/061737 Example 209, reference compound], the IC50 was 786 nM in test [3] and 2800 nM in test [2].

The term inhibition denotes the share of the control response that was lost under treatment. In general, IC50 refers to the concentration that inhibits the measured activity by half. Low readings indicate higher potency, high ones lower potency.
